# Reference: ChEMBL document CHEMBL5634148, “Synthesis and evaluation of novel pleuromutilin derivatives targeting the 50S ribosomal subunit for antibacterial ability” (Eur J Med Chem, 2023)
# Active and inactive are the calls of the source. The rule behind the calls is not given here.
# How the values were obtained:
# [1] = Toxicity in Wistar rat assessed as relative heart weight at 2000 mg/kg, po measured after 14 days (reference value: 0.36 +/- 0.03 %); type: organism-based; details: in vivo, 336 h, time 14 day
# [2] = Toxicity in Wistar rat assessed as fatality at 2000 mg/kg, po measured for 7 days; type: organism-based; details: in vivo, 168 h, time 7 day
# [3] = Toxicity in Wistar rat assessed as hepatocyte fatty degeneration at 2000 mg/kg, po measured for 14 days by H and E staining based analysis; type: organism-based; details: hepatocytes, 336 h, time 14 day
# [4] = test system: Staphylococcus aureus; assay: Antibacterial activity against methicillin-resistant Staphylococcus aureus infected in neutropenic Balb/c mouse model assessed as thickening of alveolar septa in lungs at 40 mg/kg, iv measured after 5 days; type: functional, organism-based; details: time 5.0 day
# [5] = test system: Escherichia coli; assay: Antibacterial activity against Escherichia coli CICC 10389 assessed as bacterial growth inhibition incubated for 18 to 24 hrs by NCCLS based assay; type: functional; details: time 18-24 hrs
# [6] = Toxicity in Wistar rat assessed as absolute spleen weight at 2000 mg/kg, po measured after 14 days (reference value: 0.61 +/- 0.05 g); type: organism-based; details: in vivo, 336 h, time 14 day
# [7] = Toxicity in Wistar rat assessed as relative lungs weight at 2000 mg/kg, po measured after 14 days (reference value: 0.62 +/- 0.18 %); type: organism-based; details: in vivo, 336 h, time 14 day
# [8] = test system: Staphylococcus aureus; assay: Antibacterial activity against methicillin-resistant Staphylococcus aureus infected in neutropenic Balb/c mouse model assessed as thickening of alveolar walls in lungs at 40 mg/kg, iv measured after 5 days; type: functional, organism-based; details: time 5.0 day
# [9] = Toxicity in Wistar rat assessed as absolute kidneys weight at 2000 mg/kg, po measured after 14 days (reference value: 1.77 +/- 0.16 g); type: organism-based; details: in vivo, 336 h, time 14 day
# [10] = Toxicity in Wistar rat assessed as relative kidneys weight at 2000 mg/kg, po measured after 14 days (reference value: 0.91 +/- 0.18 %); type: organism-based; details: in vivo, 336 h, time 14 day
# [11] = test system: Enterococcus faecalis; assay: Antibacterial activity against Enterococcus faecalis assessed as bacterial growth inhibition incubated for 18 to 24 hrs by NCCLS based assay; type: functional; details: time 18-24 hrs
# [12] = Toxicity in Wistar rat assessed as necrosis of alveolar epithelial cells in lungs at 2000 mg/kg, po measured for 14 days by H and E staining based analysis; type: organism-based; details: in vivo, 336 h, time 14 day
smiles,measurement,setting,value
C=C[C@]1(C)C[C@@H](OC(=O)CSc2ncnc(N(C)C)n2)[C@]2(C)[C@H](C)CC[C@]3(CCC(=O)[C@H]32)[C@@H](C)[C@@H]1O,Activity,[1],0.34%
same,Activity,[2],Non-Toxic
same,Activity,[3],Toxic
same,Activity,[4],Active
same,MIC,[5],≥ 64 µg/mL
same,Activity,[6],0.43 g
same,Activity,[7],0.53%
same,Activity,[8],Active
same,Activity,[9],1.85 g
same,Activity,[10],0.74%
same,MIC,[11],32 µg/mL
same,Activity,[12],Toxic
